Measured values from publication PMC10885651 (BMC Chemistry, 2024).

Columns and labels:
[1] = test system: mushroom tyrosinase (EC 1.14.18.1); assay: Mushroom tyrosinase inhibition assay, L-Dopa as substrate (diphenolase activity, dopachrome at 490 nm); type: biochemical; conditions: for % Inhibition at 80 µM: 80 µM compound; for % Inhibition at 80 µM / % Inhibition at 30 µM: mean of three independent experiments; for % Inhibition at 30 µM: 30 µM compound
Experimental: We conducted the assay of mushroom tyrosinase (EC 1.14.18.1) utilizing L-Dopa as the substrate, as previously described, with minor adaptations. We employed a spectrophotometric technique to assess the enzyme's diphenolase activity, observing dopachrome formation at 490 nm. […] In a 96-well microplate, 10 µl of the test samples were combined with 140 µl of 50 mM phosphate buffer (pH = 6.8). Subsequently, 20 µl of tyrosinase (273 U mL^−1) was introduced. Following a pre-incubation period of 20 min at 28 °C, 20 µl of L-Dopa solution (resulting in a final concentration of 0.7 mM) was added to the mixture. Following a 10-min incubation, the absorbance of the samples was measured. The inhibitory activity of the tested compounds was stated as IC50. The ratio percentage of inhibition was calculated according to the equation below: Inhibition%=100Abscontrol-Abscompound/Abscontrol

tyrosinase = conditions: Fig. 1; cited from earlier work
mushroom tyrosinase = assay: Kinetic study of tyrosinase inhibition (Lineweaver-Burk plots); type: biochemical
Source text: Mechanism and type of inhibition were elucidated through kinetic investigations. […] Lineweaver–Burk plots, depicting 1/V against 1/[S], were constructed to illustrate the inhibition of tyrosinase by 6b across varying concentrations of both 6b and L-Dopa, the substrate. In this context, Km represents the Michaelis–Menten constant, while Vmax signifies the maximum reaction velocity.
Based on these findings, it can be inferred that the inhibitory effect of compound 6b is competitive.
The inhibitor concentrations employed ranged from 2 to 20 μM, while the substrate (L-Dopa) concentrations in the rane of 0.1 mM to 1.5 mM through all kinetic experiments. The pre-incubation and measurement durations followed the protocol outlined in the mushroom tyrosinase inhibition assay. The maximum initial velocity was ascertained from the initial linear segment of absorbance within a 10-min window following the introduction of L-Dopa, with measurements taken at 1-min intervals. Utilizing the Lineweaver–Burk plot technique, we calculated the Michaelis constant (Km) and the tyrosinase activity's maximal velocity (Vmax). This plot involved various L-Dopa concentrations as the substrate. For assessing the enzyme's inhibition type, we employed Lineweaver–Burk plots featuring the reciprocal of velocities (1/V) plotted against the reciprocal of substrate concentrations (1/[S] mM^−1).

% Inhibition at 80 µM [1] | melting point | Molecule | further results
48.63 ± 6.37% | 215 to 218 °C | Cc1ccc(COc2ccc(C3C(C#N)=C(N)Oc4c3oc(CO)cc4=O)cc2)cc1 (centres unmarked) [6e, 2-Amino-6-(hydroxymethyl)-4-(4-((4-methylbenzyl)oxy)phenyl)-8-oxo-4,8-dihydropyrano[3,2-b]pyran-3-carbonitrile] | 
42.27 ± 2.72% | 235 to 238 °C | N#CC1=C(N)Oc2c(oc(CO)cc2=O)C1c1cccc(OCc2ccccc2)c1 (centres unmarked) [6f, 2-Amino-4-(3-(benzyloxy)phenyl)-6-(hydroxymethyl)-8-oxo-4,8-dihydropyrano[3,2-b]pyran-3-carbonitrile] | tyrosinase inhibitory activity (in words) [1]: no inhibitory activity
88.63 ± 6.36% | 239 to 242 °C | N#CC1=C(N)Oc2c(oc(CO)cc2=O)C1c1cccc(OCc2ccc(F)cc2)c1 (centres unmarked) [6g, 2-Amino-4-(3-((4-fluorobenzyl)oxy)phenyl)-6-(hydroxymethyl)-8-oxo-4,8-dihydropyrano[3,2-b]pyran-3-carbonitrile] | IC50 [1]: 9.72 ± 2.47 µM; % Inhibition at 30 µM [1]: 77.95 ± 4.54%
67.95 ± 4.54% | 232 to 236 °C | N#CC1=C(N)Oc2c(oc(CO)cc2=O)C1c1cccc(OCc2ccc(Cl)cc2)c1 (centres unmarked) [6h, 2-Amino-4-(3-((4-chlorobenzyl)oxy)phenyl)-6-(hydroxymethyl)-8-oxo-4,8-dihydropyrano[3,2-b]pyran-3-carbonitrile] | IC50 [1]: 10.7 ± 4.96 µM; % Inhibition at 30 µM [1]: 65.90 ± 5.09%
67.72 ± 7.27% | 236 to 238 °C | N#CC1=C(N)Oc2c(oc(CO)cc2=O)C1c1cccc(OCc2ccc(Br)cc2)c1 (centres unmarked) [6i, 2-Amino-4-(3-((4-bromobenzyl)oxy)phenyl)-6-(hydroxymethyl)-8-oxo-4,8-dihydropyrano[3,2-b]pyran-3-carbonitrile] | IC50 [1]: 15.3 ± 3.17 µM; % Inhibition at 30 µM [1]: 59.54 ± 5.44%
10.25 ± 3.48% |  | COc1cc(C2C(C#N)=C(N)Oc3c2oc(CO)cc3=O)ccc1OCc1ccccc1 (centres unmarked) [6k, 2-Amino-4-(4-(benzyloxy)-3-methoxyphenyl)-6-(hydroxymethyl)-8-oxo-4,8 dihydropyrano[3,2-b]pyran-3-carbonitrile] | 
49.09 ± 4.91% |  | COc1cc(C2C(C#N)=C(N)Oc3c2oc(CO)cc3=O)ccc1OCc1ccc(F)cc1 (centres unmarked) [6l, 2-Amino-4-(4-((4-fluorobenzyl)oxy)-3-methoxyphenyl)-6-(hydroxymethyl)-8-oxo-4,8-dihydropyrano[3,2-b]pyran-3-carbonitrile] | 
49.31 ± 6.12% |  | COc1cc(C2C(C#N)=C(N)Oc3c2oc(CO)cc3=O)ccc1OCc1ccc(Cl)cc1 (centres unmarked) [6m, 2-Amino-4-(4-((4-cholorobenzyl)oxy)-3-methoxyphenyl)-6-(hydroxymethyl)-8-oxo-4,8-dihydropyrano[3,2-b]pyran-3-carbonitrile] | 
21.36 ± 3.63% |  | COc1cc(C2C(C#N)=C(N)Oc3c2oc(CO)cc3=O)ccc1OCc1ccc(Br)cc1 (centres unmarked) [6n, 2-Amino-4-(4-((4-boromobenzyl)oxy)-3-methoxyphenyl)-6-(hydroxymethyl)-8-oxo-4,8-dihydropyrano[3,2-b]pyran-3-carbonitrile] | 
44.31 ± 4.18% |  | COc1cc(C2C(C#N)=C(N)Oc3c2oc(CO)cc3=O)ccc1OCc1ccc(C)cc1 (centres unmarked) [6o, 2-Amino-6-(hydroxymethyl)-4-(3-methoxy-4-((4-methylbenzyl)oxy)phenyl)-8-oxo-4,8 dihydropyrano[3,2-b]pyran-3-carbonitrile] | 

The remaining lines, values behind:

Molecule | % Inhibition at 80 µM [1] | melting point | further results
2-Amino-4-(3-((para-tolyl)oxy)phenyl)-6-(hydroxymethyl)-8-oxo-4,8-dihydropyrano[3,2-b]pyran-3-carbonitrile [6j] | 20.45 ± 4.54% |  | tyrosinase inhibitory activity (in words) [1]: without any activity
Nn1c(SCc2cc(=O)c(O)co2)nnc1-c1ccc(Cl)cc1 [1a] |  |  | IC50 (tyrosinase): 4.5 µM
O=c1cc(Cc2cn(Cc3cccc4ccccc34)nn2)occ1O [1b] |  |  | IC50 (tyrosinase): 0.06 µM
O=c1cc(/C=C/c2cc(=O)c(O)co2)occ1O [1c] |  |  | IC50 (tyrosinase): 30.6 µM
O=c1cc(CSc2nnc(-c3ccccc3)n2NCc2ccc(O)c(O)c2)occ1O [1d] |  |  | IC50 (tyrosinase): 1.35 µM
CCOC(=O)C1=C(N)Oc2c(ccc3ccccc23)C1c1cccc(Cl)c1 (centres unmarked) [1e] |  |  | IC50 (tyrosinase): 34.1 µM
CC1(C)CC(=O)C2=C(C1)Oc1ncn3ncnc3c1C2c1ccccc1 (centres unmarked) [1f] |  |  | Inhibition percentage (tyrosinase): 78%
N#CC1=C(N)Oc2c(oc(CO)cc2=O)C1c1ccc(OCc2ccccc2)cc1 (centres unmarked) [6a, 2-Amino-4-(4-(benzyloxy)phenyl)-6-(hydroxymethyl)-8-oxo-4,8-dihydropyrano[3,2-b]pyran-3-carbonitrile] | 47.90 ± 3.90% | 221 to 224 °C | tyrosinase inhibitory activity (in words) [1]: inactive
N#CC1=C(N)Oc2c(oc(CO)cc2=O)C1c1ccc(OCc2ccc(F)cc2)cc1 (centres unmarked) [6b, 2-Amino-4-(4-((4-fluorobenzyl)oxy)phenyl)-6-(hydroxymethyl)-8-oxo-4,8-dihydropyrano[3,2-b]pyran-3-carbonitrile] | 89.27 ± 2.59% | 227 to 230 °C | type of inhibition (mushroom tyrosinase; Lineweaver-Burk plot, Vmax constant, Km rising): competitive; Ki (mushroom tyrosinase; secondary plot of Km vs concentration of inhibitor, L-Dopa 0.1-1.5 mM, read-out: inhibition constant Ki): 7.57 µM; IC50 [1]: 7.69 ± 1.99 µM; % Inhibition at 30 µM [1]: 79.81 ± 6.18%
N#CC1=C(N)Oc2c(oc(CO)cc2=O)C1c1ccc(OCc2ccc(Cl)cc2)cc1 (centres unmarked) [6c, 2-Amino-4-(4-((4-chlorobenzyl)oxy)phenyl)-6-(hydroxymethyl)-8-oxo-4,8-dihydropyrano[3,2-b]pyran-3-carbonitrile] | 50.01 ± 4.34% | 236 to 239 °C | IC50 [1]: 79.2 ± 3.3 µM; % Inhibition at 30 µM [1]: 44.09 ± 2.94%
N#CC1=C(N)Oc2c(oc(CO)cc2=O)C1c1ccc(OCc2ccc(Br)cc2)cc1 (centres unmarked) [6d, 2-Amino-4-(4-((4-bromobenzyl)oxy)phenyl)-6-(hydroxymethyl)-8-oxo-4,8 dihydropyrano[3,2-b]pyran-3-carbonitrile] | 66.36 ± 3.64% | 214 to 216 °C | IC50 [1]: 34 ± 2.53 µM; % Inhibition at 30 µM [1]: 48.86 ± 3.53%
